The source of these data is paper PMC9919727 (Molecules, 2023).

Data set [1] addresses Carbonic anhydrase II (bCA II) (Bos taurus, UniProt P00921). The experiment in a line: CA II inhibition assay (4-nitrophenyl acetate hydrolysis). In kind it is biochemical, bovine. The note with it: for inhibition of the enzyme CA II (in words): under the conditions of the assay. As for the experimental part: For the CA II assay: Carbonic anhydrase II (bCA II, ≥3000 W-A units/mg from bovine erythrocytes) as well as 4-nitrophenyl acetate (4-NA) were purchased from Sigma.
The substrate (25 µL, [4-NA] = 0.75 mM, 0.50 mM, 0.25 mM, 0.15 mM) was added to start the enzymatic reaction. […] The relative inhibition was determined as the quotient of the slopes (compound divided by blank) of the linear ranges.

In data set [2] the test system is MCF-7 (breast adenocarcinoma). Nature of the data set: SRB cytotoxicity assay, MCF-7. In kind it is cell-based. The note with it: Homo sapiens, read-out: EC50 MCF-7. As for the experimental part:
(§1) Expression of CA II and its involvement cancer has previously been established for A375 [82], HT29 [83] as well as for MCF-7 cells. Cell line A2780 and non-malignant fibroblasts (NIH 3T3) were employed for comparison.
(§2) NMR spectra were recorded using the Varian spectrometers (Darmstadt, Germany) DD2 and VNMRS (400 and 500 MHz, respectively). MS spectra were taken on a Advion expressionL CMS mass spectrometer (Ithaca, USA; positive ion polarity mode, solvent: methanol, solvent flow: 0.2 mL/min, spray voltage: 5.17 kV, source voltage: 77 V, APCI corona discharge: 4.2 μA, capillary temperature: 250 °C, capillary voltage: 180 V, sheath gas: N2). Thin-layer chromatography was performed on pre-coated silica gel plates supplied by Macherey-Nagel (Düren, Germany). IR spectra were recorded on a Spectrum 1000 FT-IR-spectrometer from Perkin Elmer (Rodgau, Germany). The UV/Vis-spectra were recorded on a Lambda 14 spectrometer from Perkin Elmer (Rodgau, Germany); optical rotations were measured using a JASCO-P2000 instrument (JASCO Germany GmbH, Pfungstadt, Germany) The melting points were determined using the Leica hot stage microscope Galen III (Leica Biosystems, Nussloch, Germany) and are uncorrected. The solvents were dried according to usual procedures. Microanalyses were performed with an Elementar Vario EL (CHNS) instrument (Elementar Analysensysteme GmbH, Elementar-Straße 1, D-63505 Langenselbold, Germany). All dry solvents were distilled over respective drying agents except for DMF which was distilled and stored under argon and molecular sieve. Reactions using air- or moisture-sensitive reagents were carried out under argon atmosphere in dried glassware. Triethylamine was stored over potassium hydroxide. Biological assays were performed as previously reported employing cell lines obtained from the Department of Oncology [Martin-Luther-University Halle Wittenberg; they were bought from ATCC: malignant: A 375, HT29, MCF7, and A2780; non-malignant: NIH 3T3]. Oleanolic and ursolic acid were obtained from Betulinines (Strbrna Skalice, Czech Republic) and used as received. Glycyrrhetinic acid was bought from Orgentis Chemicals GmbH (Gatersleben).
(§3) For the SRB assay: cells were seeded into 96-well plates on day zero at appropriate cell densities to prevent confluence of the cells during the period of the experiment. […] After 72 h of treatment, the supernatant media from the 96-well plates were discarded, then the cells were fixed with 10% trichloroacetic acid and allowed to rest at 4 °C. After 24 h of fixation, the cells were washed in a strip washer and then dyed with SRB solution (200 μL, 10 mM) for 20 min. Then the plates were washed four times with 1% acetic acid to remove the excess of the dye and allowed to air-dry overnight. Tris base solution (200 μL, 10 mM) was added to each well. The absorbance was measured with a 96-well plate reader from Tecan Spectra.
In general terms: Sulforhodamine B stains cellular protein and so reports cell mass.

For data set [3], the system named is A2780 (ovarian carcinoma). Nature of the data set: SRB cytotoxicity assay, A2780. Format: cell-based. Conditions: Homo sapiens, read-out: EC50 A2780. As to the method: as §1, §2, §3
Data set [4] concerns A375 (epithelial melanoma). The experiment in a line: SRB cytotoxicity assay, A375. Format: cell-based. The note with it: Homo sapiens, read-out: EC50 A375. As for the experimental part: as §1, §2
For the SRB assay: cells were seeded into 96-well plates on day zero at appropriate cell densities to prevent confluence of the cells during the period of the experiment. […] After 72 h of treatment, the supernatant media from the 96-well plates were discarded, then the cells were fixed with 10% trichloroacetic acid and allowed to rest at 4 °C. After 24 h of fixation, the cells were washed in a strip washer and then dyed with SRB solution (200 μL, 10 mM) for 20 min. […] The absorbance was measured with a 96-well plate reader from Tecan Spectra.

The test system of data set [5] is HT29 (colorectal adenocarcinoma). The experiment in a line: SRB cytotoxicity assay, HT29. Format: cell-based. The note with it: Homo sapiens, read-out: EC50 HT29. As for the experimental part: as §1, §2, §3
The test system of data set [6] is NIH 3T3 (non-malignant fibroblasts). The experiment in a line: SRB cytotoxicity assay, NIH 3T3. Format: cell-based. The note with it: Mus musculus, read-out: EC50 NIH 3T3. As to the method:
as §1, §2, §3

Setting [7] is: MCF7, SRB assay, after 72 h of treatment.
[8] abbreviates: A2780, SRB assay, after 72 h of treatment.
Setting [9] is: A-375, SRB assay, after 72 h of treatment.
The mark [10] stands for this setting: HT-29, SRB assay, after 72 h of treatment.
Setting [11] is: at 10 µM concentration, read-out: Inhibition [%].
Where [12] appears, read: NIH3T3, SRB assay, after 72 h of treatment, non-malignant fibroblasts.

Where two headings read alike, the source gives them in different places.

Chain of Carbonic anhydrase II (bCA II) (P00921 whole entry): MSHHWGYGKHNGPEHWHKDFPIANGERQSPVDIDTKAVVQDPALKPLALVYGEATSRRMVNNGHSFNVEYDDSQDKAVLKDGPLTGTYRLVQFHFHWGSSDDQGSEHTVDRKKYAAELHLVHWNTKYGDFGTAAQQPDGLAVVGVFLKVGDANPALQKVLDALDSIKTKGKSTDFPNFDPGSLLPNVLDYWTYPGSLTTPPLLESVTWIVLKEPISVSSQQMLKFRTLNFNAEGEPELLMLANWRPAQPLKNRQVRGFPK

Consider `C[C@H]1[C@H](C)CC[C@]2(C(=O)O)CC[C@]3(C)C(=CC[C@@H]4[C@@]5(C)CC[C@H](O)C(C)(C)[C@@H]5CC[C@]43C)[C@H]12` [ursolic acid, reference compound], for which the “inhibition of the enzyme CA II (in words)” value (shortened to “inhibition … (in words)”) in data set [1] is “did not inhibit the enzyme”.
The EC50 is the midpoint of the concentration-response curve. In general, melting point refers to the temperature of the solid-liquid transition. As a reminder, the inhibition is how much of the control response was suppressed. On to `CC(=O)O[C@H]1CC[C@]2(C)[C@H]3CC=C4[C@@H]5CC(C)(C)CC[C@]5(COC(=O)CCC(=O)Nc5nnc(S(N)(=O)=O)s5)CC[C@@]4(C)[C@]3(C)CC[C@H]2C1(C)C` [Compound 18, (3β) 3-(Acetyloxy)olean-12-en-28-yl-4-{[5-(aminosulfonyl)-1,3,4-thiadiazol-2-yl]amino}-4-oxobutanoate], for which the melting point was 198 to 200 °C. Further, the EC50 in data set [2] (setting [7]) was found to be 10.6 ± 1.4 µM. Also, the concentration for a half-maximal effect (EC50) in data set [3] (setting [8]) stood at 11.8 ± 1.4 µM. Besides, the EC50 in data set [4] (setting [9]) amounted to 10.1 ± 0.8 µM. Also, the EC50 in data set [5] (setting [10]) came out at 14.2 ± 1.4 µM. Moreover, the inhibition at 10 µM in data set [1] (setting [11]) stood at 49.4 ± 0.1%. Moreover, the EC50 in data set [6] (setting [12]) is 14 ± 1.5 µM.
What is called Ki is a measure of affinity in units of concentration, obtained from inhibition or displacement. For the compound `C=C(C)[C@@H]1CC[C@]2(COC(=O)CCC(=O)Nc3nnc(S(N)(=O)=O)s3)CC[C@]3(C)[C@H](CC[C@@H]4[C@@]5(C)CC[C@H](OC(C)=O)C(C)(C)[C@@H]5CC[C@]43C)[C@@H]12` [Compound 6, (3β)-3-(Acetyloxy)lup-20(29)-en-28-yl 4-{[5-(aminosulfonyl)-1,3,4-thiadiazol-2-yl]amino}-4-oxobutanoate], the EC50 came out at 8.9 ± 0.7 µM in data set [2] (MCF7, 72 h); 9.3 ± 1.2 µM in data set [3] (A2780, 72 h); 8.5 ± 0.7 µM in data set [4] (A-375, 72 h); 10.2 ± 1.3 µM in data set [5] (HT-29, 72 h); 9.5 ± 1 µM in data set [6] (NIH3T3, 72 h). The compound further came in with a Ki in data set [1] of 0.129 ± 0.02 µM. The compound further displayed an inhibition at 10 µM in data set [1] of 93 ± 0.1%. Moreover, the “mode of inhibition of CA II” value in data set [1] is “competitive inhibitor”.
The compound `CC(=O)O[C@H]1CC[C@]2(C)[C@H]3CC=C4[C@@H]5[C@@H](C)[C@H](C)CC[C@]5(COC(=O)CCC(=O)Nc5nnc(S(N)(=O)=O)s5)CC[C@@]4(C)[C@]3(C)CC[C@H]2C1(C)C` [Compound 19, (3β)-3-(Acetyloxy)urs-12-en-28-yl-4-{[5-(aminosulfonyl)-1,3,4-thiadiazol-2-yl]amino}4-oxobutanoate] gave a melting point of 190 to 192 °C. In addition, the EC50 in data set [2] (setting [7]) turned out to be 12.4 ± 0.8 µM. In data set [3] (setting [8]), the EC50 came to 12.5 ± 1.7 µM. The EC50 in data set [4] (setting [9]) came out at 13.7 ± 1.1 µM. The EC50 in data set [5] (setting [10]) was 15 ± 0.6 µM. In data set [1] (CA II, Dixon plot, read-out: Ki), the Ki stood at 0.91 ± 0.17 µM. Also, in data set [1] (setting [11]), the inhibition at 10 µM came out at 70.8 ± 0.2%. Further, the EC50 in data set [6] (setting [12]) stood at 14.8 ± 1.5 µM.
In turn, `CC(=O)O[C@H]1CC[C@]2(C)[C@H]3C(=O)C=C4[C@@H]5C[C@@](C)(COC(=O)CCC(=O)Nc6nnc(S(N)(=O)=O)s6)CC[C@]5(C)CC[C@@]4(C)[C@]3(C)CC[C@H]2C1(C)C` [Compound 20, (3β, 20β) 3-(Acetyloxy)-11-oxoolean-12-en-30-yl-4-{[5-(aminosulfonyl)-1,3,4-thiadiazol-2-yl]amino}-4-oxobutanoate] returned a melting point of 179 to 181 °C. The EC50 in data set [2] (setting [7]) was found to be 10.5 ± 1.2 µM. Also, the EC50 in data set [3] (setting [8]) worked out at 9.8 ± 0.8 µM. Moreover, the EC50 in data set [4] (setting [9]) came out at 9.2 ± 0.5 µM. Further, the EC50 in data set [5] (setting [10]) worked out at 13 ± 1.3 µM. Moreover, the inhibition at 10 µM in data set [1] (setting [11]) is 96.8 ± 0.2%. Also, in data set [6] (setting [12]), the EC50 amounted to 11.9 ± 1.7 µM.
Regarding `C=C(C)[C@@H]1CC[C@]2(C(=O)O)CC[C@]3(C)[C@H](CC[C@@H]4[C@@]5(C)CC[C@H](O)C(C)(C)[C@@H]5CC[C@]43C)[C@@H]12` [betulinic acid, reference compound], the “inhibition … (in words)” value in data set [1] is reported as “did not inhibit the enzyme”.
As for `C=C(C)[C@@H]1CC[C@]2(CO)CC[C@]3(C)[C@H](CC[C@@H]4[C@@]5(C)CC[C@H](OC(C)=O)C(C)(C)[C@@H]5CC[C@]43C)[C@@H]12` [Compound 2, 3-O-Acetyl-betulin], the “inhibition rates (CA II)” value in data set [1] (conditions of the assay) is recorded as “less than 10%”.
Take `CC1(C)[C@@H](O)CC[C@]2(C)[C@H]3C(=O)C=C4[C@@H]5C[C@@](C)(C(=O)O)CC[C@]5(C)CC[C@@]4(C)[C@]3(C)CC[C@@H]12` [glycyrrhetinic acid, reference compound]: the “inhibition … (in words)” value in data set [1] is “did not inhibit the enzyme”.
With `COc1cccc2c1C(=O)c1c(O)c3c(c(O)c1C2=O)C[C@@](O)(C(=O)CO)C[C@@H]3O[C@H]1C[C@H](N)[C@H](O)[C@H](C)O1` [DX, doxorubicin, reference compound], the EC50 was 0.1 ± 0.01 µM in data set [2] (setting [7]), 0.1 ± 0.01 µM in data set [3] (setting [8]), 0.25 ± 0.02 µM in data set [5] (setting [10]) and 0.01 ± 0.001 µM in data set [6] (setting [12]).
In the case of `C=C(C)[C@@H]1CC[C@]2(CO)CC[C@]3(C)[C@H](CC[C@@H]4[C@@]5(C)CC[C@H](O)C(C)(C)[C@@H]5CC[C@]43C)[C@@H]12` [betulin, reference compound], the “inhibition … (in words)” value in data set [1] is recorded as “did not inhibit the enzyme”.
`C=C(C)[C@@H]1CC[C@]2(COC(=O)CCC(=O)O)CC[C@]3(C)[C@H](CC[C@@H]4[C@@]5(C)CC[C@H](OC(C)=O)C(C)(C)[C@@H]5CC[C@]43C)[C@@H]12` [Compound 3, 4-{[(3β)-3-(Acetyloxy)lup-20(29)-en-28-yl]oxy}-4-oxobutanoic Acid] had a melting point of 189 to 191 °C. In addition, in data set [1], the “inhibition rates (CA II)” value is given as “less than 10%”.
Take `CC1(C)CC[C@]2(C(=O)O)CC[C@]3(C)C(=CC[C@@H]4[C@@]5(C)CC[C@H](O)C(C)(C)[C@@H]5CC[C@]43C)[C@@H]2C1` [oleanolic acid, reference compound]: the “inhibition … (in words)” value in data set [1] is reported as “did not inhibit the enzyme”.
